Patent publication US12371428B2 (Exelixis, Inc., priority 2019, dated 2025)
Like-named read-outs stand apart in the source and are kept apart here.

What was measured:
[1] = biological target: Human KDR (residues 790-1356) (Homo sapiens (Human), UniProt P35968); experiment: Human KDR kinase assay, HTRF KinEase (Example B-2); format: biochemical
Protocol: (§1) Kinase activity and compound inhibition were also investigated using the HTRF® KinEase assay (Cisbio Cat #62TKOPEB) per manufacturer's instructions. In short, compounds were delivered in 300 nL volumes at 10 different concentrations in DMSO (3% final) to empty 384-well assay plates (Corning cat #3824). A mixture of enzyme, […] biotynlated peptide substrate, and buffer in 10 μL volume was added. The assay was started upon the addition of ATP (at Km). The 10 μL reaction was incubated at room temperature. The reaction was stopped upon the addition of detection buffer containing streptavidin-XL665 ([…]) and TK antibody-Eu3+([…]). After a 60 min incubation at room temperature, the fluorescence at 665 nm and 620 nm was read on an Envision microplate reader (Perkin Elmer).
(§2) Kinase activity normalized to DMSO (100% activity) and reference compound at […] and (0% activity) was calculated using the fluorescence ratio […]. IC50 values were calculated by nonlinear regression analysis using a 4-parameter logistic curve fit in ActivityBase XE (IDBS).
(§3) Example B-2: Human KDR (residues 790-1356; CarnaBio, 0.1 ng/well) was also incubated with enzymatic buffer (Cisbio) supplemented with 5 mM MgCl2, 1 mM MnCl2, and 1 mM DTT. The mixture was added to the pre-plated compounds. The reaction was initiated upon addition of ATP at Km (4.0 μM). The reaction was incubated at room temperature for 40 min and stopped upon the addition of SA-XL665 and TK-antibody both diluted in EDTA-containing kinase detection buffer (Cisbio). The kinase activity was calculated as stated above and the IC50 values were reported.

[2] = biological target: Human MER (residues 528-999) (Homo sapiens (Human), UniProt Q12866); experiment: Human Mer kinase assay, HTRF KinEase (Example C-2); format: biochemical
Protocol: as §1, §2
Example C-2: Human MER (residues 528-999; CarnaBio, 1 ng/well) was also incubated with enzymatic buffer (Cisbio) supplemented with 5 mM MgCl2 and 1 mM DTT. The mixture was added to the pre-plated compounds. The reaction was initiated upon addition of ATP at Km (40 μM). The reaction was incubated at room temperature for 60 min and stopped upon the addition of SA-XL665 and TK-antibody both diluted in EDTA-containing kinase detection buffer (Cisbio). The kinase activity was calculated as stated above and the IC50 values were reported.

[3] = biological target: Human MET (residues 956-1390) (Homo sapiens (Human), UniProt P08581); experiment: Human Met kinase assay, HTRF KinEase (Example D-2); format: biochemical; conditions: read-out: c-Met IC50
Protocol: as §1, §2
as §3, with “D-2:” for “B-2:”, “MET” for “KDR”, “956-1390;” for “790-1356;”, “DTT” for “MnCl2,”, “MnCl2.” for “DTT.”, “The reaction was initiated upon addition of ATP at Km (4.0 μM).” left out

[4] = biological target: Met (phospho-Met, HGF-stimulated PC-3 prostate cancer cells) (Homo sapiens (Human), UniProt P08581); experiment: Met autophosphorylation ELISA in PC-3 cells (Example F); format: cell-based; conditions: cellular activity; Met autophosphorylation ELISA in PC-3 cells; read-out: c-Met IC50
Procedure, shortened: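 Compounds were tested on HGF-stimulated PC-3 cells. After 24 h culture and 3 h serum starvation, cells got compound for 1 h and 100 ng/mL HGF for 10 min, and Met tyrosine phosphorylation was measured by ELISA.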

[5] = biological target: KDR (phospho-KDR, VEGF165-stimulated HUVEC cells) (Homo sapiens (Human), UniProt P35968); experiment: KDR autophosphorylation ELISA in HUVEC cells (Example G); format: cell-based; conditions: cellular activity; KDR autophosphorylation ELISA in HUVEC cells
Procedure, shortened: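 HUVECs were serum-starved 24 h, given compound as an 8-point dilution series (0.3% DMSO final) for 1 h, then stimulated with 100 ng/mL VEGF165 for 5 min. Lysate phospho-KDR was quantified by sandwich ELISA against a phospho-KDR standard, and IC50s came from a 4-parameter logistic fit.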

[6] = biological target: Mer (phospho-Mer, MERTK-transfected 293A cells) (Homo sapiens (Human), UniProt Q12866); experiment: Mer autophosphorylation ELISA in transient transfected 293A cells (Example H); format: cell-based; conditions: cellular activity; Mer autophosphorylation ELISA in transient transfected 293A cells
Procedure, shortened: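 Inhibition of cellular Mer autophosphorylation is determined in 293A cells transiently expressing human MERTK after 1 h compound exposure (8 concentrations, serum-free, 0.3% DMSO). Phospho-Mer in clarified lysates is measured by ELISA, with DMSO and reference-inhibitor wells defining the 100% and 0% activity limits.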

[7] = protocol of Example B-2 (other compounds)
[8] = protocol of Example C-2 (other compounds)

Chain of KDR (phospho-KDR, VEGF165-stimulated HUVEC cells) (P35968 20-1356): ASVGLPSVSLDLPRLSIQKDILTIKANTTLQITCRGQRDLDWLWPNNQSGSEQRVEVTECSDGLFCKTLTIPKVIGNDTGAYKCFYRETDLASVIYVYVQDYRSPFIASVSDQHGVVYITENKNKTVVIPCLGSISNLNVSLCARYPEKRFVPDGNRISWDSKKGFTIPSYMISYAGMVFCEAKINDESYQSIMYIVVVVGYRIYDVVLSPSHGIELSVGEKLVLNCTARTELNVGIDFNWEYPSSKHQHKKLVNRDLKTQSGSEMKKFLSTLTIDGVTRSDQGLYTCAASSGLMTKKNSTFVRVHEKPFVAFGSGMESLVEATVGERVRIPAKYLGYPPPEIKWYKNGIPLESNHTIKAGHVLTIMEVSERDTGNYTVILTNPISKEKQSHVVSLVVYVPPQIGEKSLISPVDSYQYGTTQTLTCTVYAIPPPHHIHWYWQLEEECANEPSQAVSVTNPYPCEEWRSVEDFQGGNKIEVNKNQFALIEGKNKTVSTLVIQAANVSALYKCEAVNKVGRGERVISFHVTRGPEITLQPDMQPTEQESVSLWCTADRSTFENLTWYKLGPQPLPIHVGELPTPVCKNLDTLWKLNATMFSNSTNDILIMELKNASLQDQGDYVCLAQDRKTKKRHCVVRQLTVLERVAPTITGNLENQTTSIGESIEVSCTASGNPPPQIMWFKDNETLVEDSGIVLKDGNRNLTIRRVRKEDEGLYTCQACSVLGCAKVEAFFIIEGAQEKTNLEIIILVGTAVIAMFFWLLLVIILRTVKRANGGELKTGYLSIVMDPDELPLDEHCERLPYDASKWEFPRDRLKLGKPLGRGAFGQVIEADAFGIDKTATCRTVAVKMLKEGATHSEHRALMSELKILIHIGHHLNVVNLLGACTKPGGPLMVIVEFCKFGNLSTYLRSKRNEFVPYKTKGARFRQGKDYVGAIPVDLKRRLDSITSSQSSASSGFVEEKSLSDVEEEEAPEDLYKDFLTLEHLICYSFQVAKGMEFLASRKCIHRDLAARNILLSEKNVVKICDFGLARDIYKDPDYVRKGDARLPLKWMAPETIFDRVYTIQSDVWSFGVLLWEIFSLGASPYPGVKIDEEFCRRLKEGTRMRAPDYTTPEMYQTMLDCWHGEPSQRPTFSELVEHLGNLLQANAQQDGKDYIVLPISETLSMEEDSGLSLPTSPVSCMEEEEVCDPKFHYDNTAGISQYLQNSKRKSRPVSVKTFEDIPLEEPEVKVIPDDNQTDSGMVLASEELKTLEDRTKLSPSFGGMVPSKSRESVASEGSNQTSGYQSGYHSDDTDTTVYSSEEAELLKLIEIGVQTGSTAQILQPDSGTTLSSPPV
Chain of Mer (phospho-Mer, MERTK-transfected 293A cells) (Q12866 21-999): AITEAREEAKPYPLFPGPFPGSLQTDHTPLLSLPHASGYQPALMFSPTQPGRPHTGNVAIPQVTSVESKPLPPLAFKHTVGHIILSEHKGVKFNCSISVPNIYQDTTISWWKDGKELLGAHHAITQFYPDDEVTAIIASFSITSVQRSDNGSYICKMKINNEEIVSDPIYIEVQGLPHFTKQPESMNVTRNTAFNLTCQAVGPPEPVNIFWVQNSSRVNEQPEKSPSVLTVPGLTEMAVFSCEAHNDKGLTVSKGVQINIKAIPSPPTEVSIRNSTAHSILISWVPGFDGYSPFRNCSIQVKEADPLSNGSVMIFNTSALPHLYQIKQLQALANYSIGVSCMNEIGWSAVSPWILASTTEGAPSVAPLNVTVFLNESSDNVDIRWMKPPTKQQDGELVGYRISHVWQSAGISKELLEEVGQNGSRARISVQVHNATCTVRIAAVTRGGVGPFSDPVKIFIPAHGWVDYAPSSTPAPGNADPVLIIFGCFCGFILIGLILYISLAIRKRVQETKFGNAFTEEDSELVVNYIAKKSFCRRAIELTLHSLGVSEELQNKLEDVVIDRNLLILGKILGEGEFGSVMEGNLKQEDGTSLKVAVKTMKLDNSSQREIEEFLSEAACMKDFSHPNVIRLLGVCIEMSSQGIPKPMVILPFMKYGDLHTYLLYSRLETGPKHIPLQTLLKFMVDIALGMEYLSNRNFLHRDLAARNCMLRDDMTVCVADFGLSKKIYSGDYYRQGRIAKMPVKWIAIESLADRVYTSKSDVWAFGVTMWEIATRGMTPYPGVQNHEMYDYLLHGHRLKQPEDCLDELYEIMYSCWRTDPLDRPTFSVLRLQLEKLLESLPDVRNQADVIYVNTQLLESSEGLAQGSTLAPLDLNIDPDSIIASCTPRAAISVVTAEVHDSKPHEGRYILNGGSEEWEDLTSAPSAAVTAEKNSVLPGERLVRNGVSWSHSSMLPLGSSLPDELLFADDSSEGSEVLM
Chain of Human KDR (residues 790-1356) (P35968 790-1356): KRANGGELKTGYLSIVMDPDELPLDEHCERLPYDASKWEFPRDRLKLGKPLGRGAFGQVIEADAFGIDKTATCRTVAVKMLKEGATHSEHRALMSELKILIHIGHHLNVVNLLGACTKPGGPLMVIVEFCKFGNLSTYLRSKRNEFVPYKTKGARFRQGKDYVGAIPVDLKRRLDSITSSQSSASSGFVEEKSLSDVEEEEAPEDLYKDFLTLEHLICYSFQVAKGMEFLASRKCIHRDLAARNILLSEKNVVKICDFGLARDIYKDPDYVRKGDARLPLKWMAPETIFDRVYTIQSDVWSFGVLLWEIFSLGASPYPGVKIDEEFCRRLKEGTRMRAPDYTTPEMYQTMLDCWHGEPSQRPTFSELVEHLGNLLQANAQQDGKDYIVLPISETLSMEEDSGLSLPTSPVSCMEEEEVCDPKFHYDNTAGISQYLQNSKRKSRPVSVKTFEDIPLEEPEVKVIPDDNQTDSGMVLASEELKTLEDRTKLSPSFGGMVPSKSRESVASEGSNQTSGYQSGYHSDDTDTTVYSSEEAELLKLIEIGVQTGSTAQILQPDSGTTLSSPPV
Chain of Human MET (residues 956-1390) (P08581 956-1390): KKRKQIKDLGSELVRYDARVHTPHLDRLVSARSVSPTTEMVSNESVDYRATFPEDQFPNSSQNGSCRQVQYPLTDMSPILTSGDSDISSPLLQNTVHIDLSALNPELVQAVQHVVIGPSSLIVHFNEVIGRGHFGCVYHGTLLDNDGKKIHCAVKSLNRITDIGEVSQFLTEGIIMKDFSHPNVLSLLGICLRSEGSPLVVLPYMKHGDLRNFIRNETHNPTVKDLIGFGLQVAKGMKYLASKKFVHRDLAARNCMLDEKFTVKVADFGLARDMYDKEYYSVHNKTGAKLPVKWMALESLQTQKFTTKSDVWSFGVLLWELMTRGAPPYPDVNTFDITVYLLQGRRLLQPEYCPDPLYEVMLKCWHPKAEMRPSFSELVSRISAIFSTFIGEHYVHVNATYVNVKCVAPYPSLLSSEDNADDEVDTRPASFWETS
Chain of Met (phospho-Met, HGF-stimulated PC-3 prostate cancer cells) (P08581 25-1390): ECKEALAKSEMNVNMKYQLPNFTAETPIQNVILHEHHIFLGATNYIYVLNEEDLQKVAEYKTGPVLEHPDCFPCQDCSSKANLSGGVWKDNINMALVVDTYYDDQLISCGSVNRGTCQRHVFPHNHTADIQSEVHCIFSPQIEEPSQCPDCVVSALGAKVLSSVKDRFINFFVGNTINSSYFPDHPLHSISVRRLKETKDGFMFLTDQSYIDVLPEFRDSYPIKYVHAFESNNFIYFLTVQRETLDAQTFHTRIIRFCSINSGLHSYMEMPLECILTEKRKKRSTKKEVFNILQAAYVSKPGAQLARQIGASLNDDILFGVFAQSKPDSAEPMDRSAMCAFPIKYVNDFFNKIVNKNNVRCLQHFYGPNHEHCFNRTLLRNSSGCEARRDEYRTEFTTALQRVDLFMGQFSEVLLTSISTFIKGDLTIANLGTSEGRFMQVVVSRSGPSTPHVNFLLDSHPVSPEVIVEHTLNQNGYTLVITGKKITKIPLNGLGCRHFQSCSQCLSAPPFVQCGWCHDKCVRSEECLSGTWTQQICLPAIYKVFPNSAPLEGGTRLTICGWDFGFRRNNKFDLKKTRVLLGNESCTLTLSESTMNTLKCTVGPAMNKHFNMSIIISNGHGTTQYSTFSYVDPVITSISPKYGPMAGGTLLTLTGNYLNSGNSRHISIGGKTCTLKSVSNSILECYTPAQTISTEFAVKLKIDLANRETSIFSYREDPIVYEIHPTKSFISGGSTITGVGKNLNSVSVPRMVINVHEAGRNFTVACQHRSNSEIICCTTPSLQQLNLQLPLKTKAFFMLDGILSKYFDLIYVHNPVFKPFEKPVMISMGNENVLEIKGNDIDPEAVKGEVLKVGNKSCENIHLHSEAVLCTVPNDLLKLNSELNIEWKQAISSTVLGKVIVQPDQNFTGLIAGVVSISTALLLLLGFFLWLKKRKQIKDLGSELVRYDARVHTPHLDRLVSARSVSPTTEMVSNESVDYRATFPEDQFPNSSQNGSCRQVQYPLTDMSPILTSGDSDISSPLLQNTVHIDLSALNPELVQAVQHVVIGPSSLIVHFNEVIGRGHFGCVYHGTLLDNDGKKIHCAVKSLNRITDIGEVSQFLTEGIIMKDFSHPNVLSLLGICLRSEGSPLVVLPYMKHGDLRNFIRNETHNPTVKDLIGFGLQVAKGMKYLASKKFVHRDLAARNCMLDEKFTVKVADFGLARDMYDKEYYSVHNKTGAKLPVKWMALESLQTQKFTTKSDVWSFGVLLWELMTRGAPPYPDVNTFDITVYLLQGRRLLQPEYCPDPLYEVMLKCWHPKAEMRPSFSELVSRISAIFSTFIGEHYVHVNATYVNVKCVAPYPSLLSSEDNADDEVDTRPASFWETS

Structure (SMILES) | IC50 ([1]; protocol of Example B-2) | IC50 ([2]; protocol of Example C-2) | IC50 ([3]; protocol of Example D-2) | IC50 [1, 7] | IC50 [2, 8] | IC50 ([3]; protocol of Example D-2 (other compounds)) | IC50 [4] | IC50 [5] | IC50 [6]
Cc1ncc(C(=O)Nc2ccc(Oc3ccnc4cc(C(F)(F)F)cnc34)cc2)c(O)c1-c1ccc(F)cc1 [Compound 150, 5-(4-Fluorophenyl)-4-hydroxy-6-methyl-N-[4-[[7-(trifluoromethyl)-1,5-naphthyridin-4-yl]oxy]phenyl]pyridine-3-carboxamide] | – | – | – | > 300 nM | < 100 nM | < 100 nM | – | – | –
Cc1ccc(C(=O)Nc2ccc(Oc3ccnc4cccnc34)c(F)c2)c(=O)n1-c1ccc(F)cc1 [Compound 302, N-[3-Fluoro-4-(1,5-naphthyridin-4-yloxy)phenyl]-1-(4-fluorophenyl)-6-methyl-2-oxopyridine-3-carboxamide] | – | – | – | > 300 nM | < 100 nM | – | < 100 nM | 100 to 300 nM | < 100 nM
COc1cc2nccc(Oc3ccc(NC(=O)c4c(C)c(Cl)c(C)n(-c5ccc(F)cc5)c4=O)cc3F)c2nc1OC [Compound 308, 5-Chloro-N-[4-[(6,7-dimethoxy-1,5-naphthyridin-4-yl)oxy]-3-fluorophenyl]-1-(4-fluorophenyl)-4,6-dimethyl-2-oxopyridine-3-carboxamide] | – | – | – | > 300 nM | < 100 nM | – | < 100 nM | < 100 nM | < 100 nM
COc1cnc2c(Oc3ccc(NC(=O)c4c(C)c(Cl)c(C)n(-c5ccc(F)cc5)c4=O)cc3F)ccnc2c1 [Compound 309, 5-Chloro-N-[3-fluoro-4-[(7-methoxy-1,5-naphthyridin-4-yl)oxy]phenyl]-1-(4-fluorophenyl)-4,6-dimethyl-2-oxopyridine-3-carboxamide] | – | – | – | > 300 nM | < 100 nM | – | < 100 nM | > 300 nM | < 100 nM
COc1cc2nccc(Oc3ccc(NC(=O)c4ccnn(-c5ccc(F)cc5C)c4=O)cc3)c2nc1OC [Compound 528, N-[4-[(6,7-dimethoxy-1,5-naphthyridin-4-yl)oxy]phenyl]-2-(4-fluoro-2-methylphenyl)-3-oxopyridazine-4-carboxamide] | 100 to 300 nM | < 100 nM | – | – | – | – | < 100 nM | < 100 nM | < 100 nM
O=C(Nc1ccc(Oc2ccnc3cccnc23)c(F)c1)c1cccn(-c2ccc(F)cc2)c1=O [Compound 304, N-[3-Fluoro-4-(1,5-naphthyridin-4-yloxy)phenyl]-1-(4-fluorophenyl)-2-oxopyridine-3-carboxamide] | – | – | – | > 300 nM | < 100 nM | – | < 100 nM | 100 to 300 nM | < 100 nM
COc1cc2nccc(Oc3ccc(NC(=O)c4c(C)c(Cl)c(C)n(-c5ccc(F)cc5)c4=O)cc3)c2nc1OC [Compound 307, 5-Chloro-N-[4-[(6,7-dimethoxy-1,5-naphthyridin-4-yl)oxy]phenyl]-1-(4-fluorophenyl)-4,6-dimethyl-2-oxopyridine-3-carboxamide] | – | – | – | > 300 nM | < 100 nM | – | < 100 nM | > 300 nM | < 100 nM
CCOc1c(C)cn(-c2ccc(F)cc2)c(=O)c1C(=O)Nc1ccc(Oc2ccnc3cc(OC)c(OC)nc23)c(F)c1 [Compound 371, N-[4-[(6,7-dimethoxy-1,5-naphthyridin-4-yl)oxy]-3-fluorophenyl]-4-ethoxy-1-(4-fluorophenyl)-5-methyl-2-oxopyridine-3-carboxamide] | – | – | – | < 100 nM | < 100 nM | – | < 100 nM | < 100 nM | < 100 nM
COc1cc2nccc(Oc3ccc(NC(=O)c4c(OC)c(C)cn(-c5ccc(F)cc5)c4=O)cc3F)c2nc1OC [Compound 372, N-[4-[(6,7-dimethoxy-1,5-naphthyridin-4-yl)oxy]-3-fluorophenyl]-1-(4-fluorophenyl)-4-methoxy-5-methyl-2-oxopyridine-3-carboxamide] | – | – | – | < 100 nM | < 100 nM | – | < 100 nM | < 100 nM | < 100 nM

Second part, the compound after the results:

IC50 ([1]; protocol of Example B-2) | IC50 ([2]; protocol of Example C-2) | IC50 ([3]; protocol of Example D-2) | IC50 [1, 7] | IC50 [2, 8] | IC50 ([3]; protocol of Example D-2 (other compounds)) | IC50 [4] | IC50 [5] | IC50 [6] | Structure (SMILES)
> 300 nM | 100 to 300 nM | > 300 nM | – | – | – | – | – | – | COc1nc2c(Oc3ccc(NC(=O)c4cnc(C)c(-c5ccc(F)cc5C)c4O)cc3F)ccnc2cc1C(C)C [Compound 591, N-[3-Fluoro-4-[(6-methoxy-7-propan-2-yl-1,5-naphthyridin-4-yl)oxy]phenyl]-5-(4-fluoro-2-methylphenyl)-4-hydroxy-6-methylpyridine-3-carboxamide]
100 to 300 nM | < 100 nM | > 300 nM | – | – | – | – | – | – | C=C(C)c1cc2nccc(Oc3ccc(NC(=O)c4cnc(C)c(-c5ccc(F)cc5)c4O)cc3F)c2nc1OC [Compound 452, N-[3-fluoro-4-[(6-methoxy-7-prop-1-en-2-yl-1,5-naphthyridin-4-yl)oxy]phenyl]-5-(4-fluorophenyl)-4-hydroxy-6-methylpyridine-3-carboxamide]
> 300 nM | < 100 nM | – | – | – | – | < 100 nM | > 300 nM | < 100 nM | COc1cnc2c(Oc3ccc(NC(=O)c4nn(C(C)C)c(C)c(-c5ccc(F)cc5)c4=O)cc3F)ccnc2c1 [Compound 566, N-[3-Fluoro-4-[(7-methoxy-1,5-naphthyridin-4-yl)oxy]phenyl]-5-(4-fluorophenyl)-6-methyl-4-oxo-1-propan-2-ylpyridazine-3-carboxamide]
100 to 300 nM | < 100 nM | – | – | – | – | < 100 nM | < 100 nM | < 100 nM | COc1cc2nccc(Oc3ccc(NC(=O)c4ccnn(-c5ccc(F)cc5C)c4=O)cc3F)c2nc1OC [Compound 527, N-[4-[(6,7-dimethoxy-1,5-naphthyridin-4-yl)oxy]-3-fluorophenyl]-2-(4-fluoro-2-methylphenyl)-3-oxopyridazine-4-carboxamide]
> 300 nM | 100 to 300 nM | – | – | – | – | < 100 nM | < 100 nM | < 100 nM | COc1cnc2c(Oc3ccc(NC(=O)c4ccnn(-c5ccc(F)cc5C)c4=O)cc3F)ccnc2c1 [Compound 529, N-[3-fluoro-4-[(7-methoxy-1,5-naphthyridin-4-yl)oxy]phenyl]-2-(4-fluoro-2-methylphenyl)-3-oxopyridazine-4-carboxamide]
> 300 nM | < 100 nM | – | – | – | – | < 100 nM | > 300 nM | < 100 nM | CNC(=O)c1c(-c2ccc(F)cc2)c(=O)c(C(=O)Nc2ccc(Oc3ccnc4cc(OC)c(OC)nc34)c(F)c2)cn1C [Compound 563, 5-N-[4-[(6,7-Dimethoxy-1,5-naphthyridin-4-yl)oxy]-3-fluorophenyl]-3-(4-fluorophenyl)-2-N,1-dimethyl-4-oxopyridine-2,5-dicarboxamide]
– | – | – | < 100 nM | < 100 nM | – | < 100 nM | < 100 nM | < 100 nM | CNC(=O)Cc1cc2c(Oc3ccc(NC(=O)c4cnc(C)c(-c5ccc(F)cc5)c4O)cc3F)ccnc2cc1OC [Compound 376, N-[3-fluoro-4-[7-methoxy-6-[2-(methylamino)-2-oxoethyl]quinolin-4-yl]oxyphenyl]-5-(4-fluorophenyl)-4-hydroxy-6-methylpyridine-3-carboxamide]
